How the values were obtained:
Experiment in all cases: relative viability (nuclei count vs DMSO), 5 days (fraction); higher = more cells survive
[1] = compound: CC1(COc2ccc3c(c2)ncn3-c2ccc3cccc(N4CCC(N)CC4)c3n2)COC1 [Crenolanib] + COc1cccc2cc(-c3nc([C@H]4CC[C@H](C(=O)O)CC4)n4ncnc(N)c34)[nH]c12 [OSI-027] (partner 0.5 µM)
Procedure, shortened: (§1)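 Nuclei were stained with Hoechst during a one-step fixation (final 0.05% Triton X-100, 1% formaldehyde, 1 ug/ml Hoechst) carried out 5 days after dosing, then counted on 4× images. The cells, lung cancer lines in 1536-well plates, had been dosed by pin tool the day after seeding with one drug alone or a fixed anchor-drug dose plus five library-drug doses (not always all listed) in √10 steps. Relative viability is the nuclei count in treated wells divided by that in vehicle wells, and each value is the median of duplicate plates.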

[2] = compound: CC1(COc2ccc3c(c2)ncn3-c2ccc3cccc(N4CCC(N)CC4)c3n2)COC1 [Crenolanib] + N=C(N)NC(=N)NCCc1ccccc1 [Phenformin] (partner 250 µM)
Procedure, shortened: as §1

[3] = compound: O=C1NC(=O)[C@@H](c2cn3c4c(cccc24)CCC3)[C@@H]1c1c[nH]c2ccccc12 [Tivantinib] + CCNC(=O)c1noc(-c2cc(C(C)C)c(O)cc2O)c1-c1ccc(CN2CCOCC2)cc1 [Luminespib] (partner 0.01 µM)
Procedure, shortened: as §1

[4] = compound: CC1(COc2ccc3c(c2)ncn3-c2ccc3cccc(N4CCC(N)CC4)c3n2)COC1 [Crenolanib] + C[C@]1(O)C[C@@H](c2nc(-c3ccc4ccc(-c5ccccc5)nc4c3)c3c(N)nccn32)C1 [Linsitinib] (partner 1 µM)
Procedure, shortened: as §1

NCI-H727
relative viability ([1]; first compound 0.01 µM): 0.782
relative viability ([1]; first compound 0.03162 µM): 0.649
relative viability ([1]; first compound 0.1 µM): 0.731
relative viability ([1]; first compound 0.3162 µM): 0.614
relative viability ([1]; first compound 1 µM): 0.431
relative viability ([2]; first compound 0.01 µM): 0.636
relative viability ([2]; first compound 0.03162 µM): 0.544
relative viability ([2]; first compound 0.1 µM): 0.497
relative viability ([2]; first compound 0.3162 µM): 0.565
relative viability ([2]; first compound 1 µM): 0.599
relative viability ([3]; first compound 0.01 µM): 0.334
relative viability ([3]; first compound 0.03162 µM): 0.37
relative viability ([3]; first compound 0.1 µM): 0.514
relative viability ([3]; first compound 0.3162 µM): 0.253
relative viability ([4]; first compound 0.01 µM): 0.285
relative viability ([4]; first compound 0.03162 µM): 0.245
relative viability ([4]; first compound 0.1 µM): 0.284
relative viability ([4]; first compound 0.3162 µM): 0.327
relative viability ([4]; first compound 1 µM): 0.389

NCI-H1793
relative viability ([1]; first compound 0.01 µM): 0.297
relative viability ([1]; first compound 0.03162 µM): 0.335
relative viability ([1]; first compound 0.1 µM): 0.237
relative viability ([1]; first compound 0.3162 µM): 0.311
relative viability ([1]; first compound 1 µM): 0.268
relative viability ([2]; first compound 0.01 µM): 0.453
relative viability ([2]; first compound 0.03162 µM): 0.38
relative viability ([2]; first compound 0.1 µM): 0.376
relative viability ([2]; first compound 0.3162 µM): 0.288
relative viability ([2]; first compound 1 µM): 0.364
relative viability ([3]; first compound 0.01 µM): 0.186
relative viability ([3]; first compound 0.03162 µM): 0.22
relative viability ([3]; first compound 0.1 µM): 0.156
relative viability ([3]; first compound 0.3162 µM): 0.203
relative viability ([4]; first compound 0.01 µM): 0.811
relative viability ([4]; first compound 0.03162 µM): 1.03
relative viability ([4]; first compound 0.1 µM): 0.838
relative viability ([4]; first compound 0.3162 µM): 1.14
relative viability ([4]; first compound 1 µM): 0.873

NCI-H1755
relative viability ([1]; first compound 0.01 µM): 0.701
relative viability ([1]; first compound 0.03162 µM): 0.797
relative viability ([1]; first compound 0.1 µM): 0.696
relative viability ([1]; first compound 0.3162 µM): 0.708
relative viability ([1]; first compound 1 µM): 0.653
relative viability ([2]; first compound 0.01 µM): 0.666
relative viability ([2]; first compound 0.03162 µM): 0.642
relative viability ([2]; first compound 0.1 µM): 0.61
relative viability ([2]; first compound 0.3162 µM): 0.613
relative viability ([2]; first compound 1 µM): 0.574
relative viability ([3]; first compound 0.01 µM): 0.478
relative viability ([3]; first compound 0.03162 µM): 0.473
relative viability ([3]; first compound 0.1 µM): 0.4
relative viability ([3]; first compound 0.3162 µM): 0.437
relative viability ([4]; first compound 0.01 µM): 1.01
relative viability ([4]; first compound 0.03162 µM): 0.981
relative viability ([4]; first compound 0.1 µM): 0.994
relative viability ([4]; first compound 0.3162 µM): 1.09
relative viability ([4]; first compound 1 µM): 0.959

HARA
relative viability ([1]; first compound 0.01 µM): 0.639
relative viability ([1]; first compound 0.03162 µM): 0.501
relative viability ([1]; first compound 0.1 µM): 0.319
relative viability ([1]; first compound 0.3162 µM): 0.591
relative viability ([1]; first compound 1 µM): 0.396
relative viability ([2]; first compound 0.01 µM): 0.471
relative viability ([2]; first compound 0.03162 µM): 0.464
relative viability ([2]; first compound 0.1 µM): 0.398
relative viability ([2]; first compound 0.3162 µM): 0.391
relative viability ([2]; first compound 1 µM): 0.488
relative viability ([3]; first compound 0.01 µM): 0.909
relative viability ([3]; first compound 0.03162 µM): 0.592
relative viability ([3]; first compound 0.1 µM): 0.738
relative viability ([3]; first compound 0.3162 µM): 0.689
relative viability ([4]; first compound 0.01 µM): 0.914
relative viability ([4]; first compound 0.03162 µM): 0.886
relative viability ([4]; first compound 0.1 µM): 0.983
relative viability ([4]; first compound 0.3162 µM): 0.975
relative viability ([4]; first compound 1 µM): 0.926

201T
relative viability ([1]; first compound 0.01 µM): 0.505
relative viability ([1]; first compound 0.03162 µM): 0.605
relative viability ([1]; first compound 0.1 µM): 0.695
relative viability ([1]; first compound 0.3162 µM): 0.763
relative viability ([1]; first compound 1 µM): 0.692
relative viability ([2]; first compound 0.01 µM): 0.438
relative viability ([2]; first compound 0.03162 µM): 0.446
relative viability ([2]; first compound 0.1 µM): 0.438
relative viability ([2]; first compound 0.3162 µM): 0.446
relative viability ([2]; first compound 1 µM): 0.435
relative viability ([3]; first compound 0.01 µM): 1.07
relative viability ([3]; first compound 0.03162 µM): 1.05
relative viability ([3]; first compound 0.1 µM): 1.01
relative viability ([3]; first compound 0.3162 µM): 1.09
relative viability ([4]; first compound 0.01 µM): 1.05
relative viability ([4]; first compound 0.03162 µM): 1.04
relative viability ([4]; first compound 0.1 µM): 1.01
relative viability ([4]; first compound 0.3162 µM): 1.04
relative viability ([4]; first compound 1 µM): 1.11

From the supplement of paper PMC10307832
